# Measured values published in publication PMC9740939, “A Network-Pharmacology-Combined Integrated Pharmacokinetic Strategy to Investigate the Mechanism of Potential Liver Injury due to Polygonum multiflorum” (Molecules, 2022).
# Read-outs that look alike come from different tables or passages of the source.
# Columns and labels:
# [1] = Integrated pharmacokinetics by AUC-based weighting approach; type: in vivo, Sprague–Dawley (SD) rats; details: Wj = AUCj0–∞ / sum of AUC0–∞; rats, oral PM 18 g/kg
# Description: (§1) Blood samples were collected from the fundus into heparinized 1.5 mL polythene tubes at 5, 15, and 30 min and 1, 2, 4, 8, 12, and 24 h after oral administration of PM (18 g/kg). The blood samples were immediately centrifuged at 3500 rpm for 10 min to obtain plasma. Next, the plasma obtained was prepared for HPLC-QQQ-MS analysis, as described before. The TSG, EG, PG, AE, and EM concentrations in plasma versus time data for each rat were analyzed using Drug and Statistics Software (DAS version 3.2.8, Beijing University of Traditional Chinese Medicine, Beijing, China).
# As mentioned before, the concentration–time curve (AUC0–∞) of each constituent was obtained using DAS, and then the integrated concentration was obtain using the following equations [46]: The weighting coefficient for each component was calculated using Equations (1) and (2). The integrated concentrations were then calculated by Equation (3). (1) Wj=AUCj0−∞/∑13AUC0−∞ (2) ∑13AUC0−∞=AUC0−∞1+AUC0−∞2+AUC0−∞3 (3) cT=W1×c1+W2×c2+W3×c3 where ω represents the weighting coefficient, “j” represents the three constituents studied, C1–C3 represent the plasma concentration of the three index components studied, and CT represents the integrated plasma concentration.
# [2] = Pharmacokinetic study in rats after oral administration of PM extract (HPLC-QQQ-MS of plasma); type: in vivo, Sprague–Dawley (SD) rats; details: oral PM 18 g/kg; for half-life: n = 6, read-out: T1/2z (converted); for MRT last: read-out: MRT0–t; for MRT inf: read-out: MRT0–∞; for Vd/F: read-out: Vz/F
# Description: Adult male Sprague–Dawley (SD) rats weighing between 180 g and 220 g were purchased from Beijing Vital River Laboratory Animal Technology Co., Ltd. (Beijing, China). The rats were kept in an animal center with air-conditioning and with a natural light–dark cycle (22 ± 1 °C and 40–50% humidity) with ad libitum access to standard food and water for a week before the experiment. All the animal procedures were in accordance with the Regulations of Experimental Animal Administration issued by the State Committee of Science and Technology of the People’s Republic of China. All the SD rats were fasted for 12 h prior to the experiment but with free access to water.
# The assay was performed with an Agilent 1260 high-performance liquid chromatography system combined with Agilent 6470 QQQ MS (Agilent Technologies, CA, USA). Applied Masshunter Qualitative Analysis software (version B.07.00) and Quantitative Analysis software (version 07.00) were used for data acquisition and quantification. Analytes separation was achieved on a reversed-phase C18 column (Agilent Poroshell 120 EC-C18, 3.0 × 50 mm, 2.7 μm), which was protected by a guard column (Agilent EC-C18 3.0 × 5.0 mm, 2.7 μm). A gradient elution program composed of water (A) and acetonitrile (B) with gradient elution was used as follows: 0–1 min, 5% B; 1–3 min, 5–45% B; 3–7 min, 45–60% B; and 7–9 min, 60–95% B. The oven temperature was maintained at 40 °C. The flow rate was set at 0.6 mL/min (with a split ratio of 1:1.8), and the injection volume was 4 μL.
# Agilent QQQ MS equipped with an electrospray ionization (ESI) source was used for mass spectrometric detection. MRM mode (negative) was used for performing the quantification of TSG, EG, PG, AE, and EM. The other MS conditions were set as follows: gas temperature, 300 °C, gas flow, 8 L/min; nebulizer, 55 psi; and sheath gas flow, 11 L/min.
# A simple pretreatment method for protein precipitation was carried out to clean up the plasma samples prior to LC-MS/MS analysis. The plasma sample was thawed to room temperature. An aliquot of pre-cooled 800 μL of acetonitrile and 100 μL of IS solution (100 ng/mL) was added to a 300 μL plasma sample in a centrifuge tube. The tubes were vortexed for 10 min and spun in a centrifuge at 12,000 rpm for 15 min at 4 °C. The supernatant was transferred into a separate tube and dried using a vacuum concentrator, and the samples were re-dissolved with 100 μL of pure methanol. Next, the tube was vortexed for 10 min and spun in a centrifuge at 12,000 rpm for 15 min at 4 °C again. The supernatant was then injected into the HPLC-QQQ-MS instrument for analysis.
# as §1
# [3] = Stability of analytes in rat plasma (QC samples, storage and freeze–thaw); type: in vitro ADME; details: for Stability in rat plasma (in words): 4 °C for 48 h, −80 °C for 10 days, three freeze–thaw cycles; for Stability Re (%), 4 °C, 48 h / Stability Re (%), −80 °C, 10 Days / Stability Re (%), Three Freeze–Thaw Cycles: rat plasma, n = 6; for Stability Re (%), Three Freeze–Thaw Cycles: −80 °C to 25 °C
# Description: Samples for bioanalytical method validation were prepared by spiking 100 μL of blank rat plasma and 100 μL of IS solution in bulk with different standard solutions to obtain appropriate concentrations for serial standard working solutions with the matrix and QC samples (TSG, PG, AE, and EM: 0.50 ng/mL (lower limit of quantitation, LLOQ), 10.0 ng/mL (low quality control, LQC), 200 ng/mL (medium quality control, MQC), and 640 ng/mL (high quality control, HQC); EG: 0.125 ng/mL (LLOQ), 2.50 ng/mL (LQC), 50.0 ng/mL (MQC), and 160 ng/mL (HQC)). All the stock solutions, working solutions, and samples were stored at −80 °C pending use.
# Stability experiments were performed to evaluate the stability of the analytes in rat plasma at the LQC, MQC, and HQC under different time and temperature conditions. These included short-term stability (4 °C for 48 h), long-term stability (−80 °C for 10 days), and stability over three freeze–thaw cycles (−80 °C to 25 °C) by analyzing QC samples.
# [4] = male, Sprague-Dawley, rat, plasma, po, 18 g/kg, n = 6
# [5] = male, Sprague-Dawley, rat, plasma, po, 18 g/kg
# [6] = male, Sprague-Dawley, rat plasma, n = 6
# [7] = HQC: spiked 640 ng/mL (EG 160 ng/mL)
# [8] = LQC: spiked 10.0 ng/mL (EG 2.50 ng/mL)
# [9] = MQC: spiked 200 ng/mL (EG 50.0 ng/mL)
# [10] = male, Sprague-Dawley, rat plasma, n = 6, read-out: Tmax
"MRT inf [2, 6]",Compound,Weighting coefficient (AUC0–∞ share) [1],"AUC(0-inf) [2, 4]","half-life [2, 5]","AUC(0-t) [2, 6]","Cmax [2, 6]","MRT last [2, 6]","Vd/F [2, 6]","CLz/F ([2]; rat plasma, n = 6)",Stability in rat plasma (in words) [3],"Stability Re (%), 4 °C, 48 h [3, 7]","Stability Re (%), −80 °C, 10 Days [3, 7]","Stability Re (%), Three Freeze–Thaw Cycles [3, 7]","Stability Re (%), 4 °C, 48 h [3, 8]","Stability Re (%), −80 °C, 10 Days [3, 8]","Stability Re (%), Three Freeze–Thaw Cycles [3, 8]","Stability Re (%), 4 °C, 48 h [3, 9]","Stability Re (%), −80 °C, 10 Days [3, 9]","Stability Re (%), Three Freeze–Thaw Cycles [3, 9]","T1/2z ([2]; rat plasma, n = 6)",also measured
,"Cc1cc(O)c2c(c1)C(=O)c1cc(O)cc(O)c1C2=O [EM, emodin]",,1020 ± 300 ng·h/mL,11.1 ± 5.22 h,1020 ± 142 ng·h/mL,388 ± 32.1 ng/mL,6.82 ± 0.545 h,152 ± 51.5 L/kg,171 ± 42.3 mL/min/kg,stable,85.19%,111.7%,99.10%,86.36%,97.48%,96.37%,92.05%,99.40%,98.71%,11.1 ± 5.22 h,"AUC0–∞ ([2]; rat plasma, n = 6): 1041 ± 300.2 ng·h/mL; MRT0–∞ ([2]; rat plasma, n = 6): 12.71 ± 5.092 h"
17.6 ± 13.9 h,"COc1cc(O)c2c(c1)C(=O)c1cc(C)cc(OC3OC(CO)C(O)C(O)C3O)c1C2=O [PG, physcion-8-O-β-D-glucoside]",,,12.3 ± 10.1 h,146 ± 19.4 ng·h/mL,20 ± 2.69 ng/mL,8.41 ± 1.01 h,242 ± 71.8 L/kg,290 ± 103 mL/min/kg,stable,92.41%,96.88%,98.03%,98.55%,90.14%,88.21%,90.36%,94.69%,94.08%,12.3 ± 10.1 h,"AUC(0-inf) [2, 6]: 205 ± 95.6 ng·h/mL; Tmax [2, 10]: 0.25 h"
1.23 ± 0.203 h,"OCC1OC(Oc2c(O)cc(O)cc2C=Cc2ccc(O)cc2)C(O)C(O)C1O [TSG, trans-2,3,5,4′-tetrahydroxystilbene-2-O-β-D-glucoside]",30.19%,,2.22 ± 1.34 h,758 ± 58.9 ng·h/mL,728 ± 104 ng/mL,1.22 ± 0.182 h,2000 ± 1270 L/kg,10300 ± 769 mL/min/kg,stable,97.86%,92.72%,99.01%,100.1%,97.92%,91.38%,92.13%,95.95%,95.27%,,"AUC(0-inf) [2, 6]: 758 ± 58.6 ng·h/mL; Tmax [2, 10]: 0.25 h"

Compound,"MRT inf [2, 6]",Weighting coefficient (AUC0–∞ share) [1],"AUC(0-inf) [2, 4]","half-life [2, 5]","AUC(0-t) [2, 6]","Cmax [2, 6]","MRT last [2, 6]","Vd/F [2, 6]","CLz/F ([2]; rat plasma, n = 6)",Stability in rat plasma (in words) [3],"Stability Re (%), 4 °C, 48 h [3, 7]","Stability Re (%), −80 °C, 10 Days [3, 7]","Stability Re (%), Three Freeze–Thaw Cycles [3, 7]","Stability Re (%), 4 °C, 48 h [3, 8]","Stability Re (%), −80 °C, 10 Days [3, 8]","Stability Re (%), Three Freeze–Thaw Cycles [3, 8]","Stability Re (%), 4 °C, 48 h [3, 9]","Stability Re (%), −80 °C, 10 Days [3, 9]","Stability Re (%), Three Freeze–Thaw Cycles [3, 9]","T1/2z ([2]; rat plasma, n = 6)",also measured
"O=C1c2cccc(O)c2C(=O)c2c(O)cc(CO)cc21 [AE, aloe-emodin]",8.57 ± 3.02 h,2.799%,70.3 ± 13.8 ng·h/mL,6.42 ± 2.17 h,64.5 ± 9.4 ng·h/mL,17.9 ± 2.94 ng/mL,6.5 ± 1.42 h,407 ± 113 L/kg,756 ± 131 mL/min/kg,stable,90.21%,100.1%,96.94%,94.77%,90.27%,90.50%,97.05%,89.62%,91.44%,,"Tmax ([2]; rat plasma, n = 6): 0.25 ± 0.00 h"
